How the values were obtained:
Test in all cases: Standardized radiometric kinase assays, percentage of activity at 0.5 μM;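 note: Read-out is ³³P-labelled substrate protein phosphorylated by each kinase, captured on filters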
[1] = target: each individual kinase of the panel (Homo sapiens, UniProt O14733); conditions: for % Activity: MKK7β(h)
[2] = target: each individual kinase of the panel (Homo sapiens, UniProt O60674); conditions: for % Activity: JAK2(h)
[3] = target: each individual kinase of the panel (Homo sapiens, UniProt P00519); conditions: for % Activity: Abl(h)
[4] = target: each individual kinase of the panel (Homo sapiens, UniProt P06493); conditions: for % Activity: CDK1/cyclinB(h)
[5] = target: each individual kinase of the panel (Homo sapiens, UniProt P07332); conditions: for % Activity: Fes(h)
[6] = target: each individual kinase of the panel (Homo sapiens, UniProt P07947); conditions: for % Activity: Yes(h)
[7] = target: each individual kinase of the panel (Homo sapiens, UniProt P11309); conditions: for % Activity: Pim-1(h)
[8] = target: each individual kinase of the panel (Homo sapiens, UniProt P12931); conditions: for % Activity: cSRC(h)
[9] = target: each individual kinase of the panel (Homo sapiens, UniProt P16234); conditions: for % Activity: PDGFRα(h)
[10] = target: each individual kinase of the panel (Homo sapiens, UniProt P17252); conditions: for % Activity: PKCα(h)
[11] = target: each individual kinase of the panel (Homo sapiens, UniProt P17948); conditions: for % Activity: Flt1(h)
[12] = target: each individual kinase of the panel (Homo sapiens, UniProt P36888, D835Y); conditions: for % Activity: Flt3(D835Y)(h)
[13] = target: each individual kinase of the panel (Homo sapiens, UniProt P43403); conditions: for % Activity: ZAP-70(h)
[14] = target: each individual kinase of the panel (Homo sapiens, UniProt P49841); conditions: for % Activity: GSK3β(h)
[15] = target: each individual kinase of the panel (Homo sapiens, UniProt P54756); conditions: for % Activity: EphA5(h)
[16] = target: each individual kinase of the panel (Homo sapiens, UniProt P68400); conditions: for % Activity: CK2(h)
[17] = target: each individual kinase of the panel (Homo sapiens, UniProt P80192); conditions: for % Activity: MLK1(h)
[18] = target: each individual kinase of the panel (Homo sapiens, UniProt Q06418); conditions: for % Activity: Rse(h)
[19] = target: each individual kinase of the panel (Homo sapiens, UniProt Q14012); conditions: for % Activity: CaMKI(h)
[20] = target: each individual kinase of the panel (Homo sapiens, UniProt Q14680); conditions: for % Activity: MELK(h)
[21] = target: each individual kinase of the panel (Homo sapiens, UniProt Q9BZL6); conditions: for % Activity: PKD2(h)
[22] = target: each individual kinase of the panel (Homo sapiens, UniProt Q9H2X6); conditions: for % Activity: HIPK2(h)
[23] = target: each individual kinase of the panel (Homo sapiens, UniProt Q9HCP0); conditions: for % Activity: CK1γ1(h)
[24] = target: each individual kinase of the panel (Homo sapiens, UniProt Q9P1W9); conditions: for % Activity: Pim-2(h)
[25] = target: each individual kinase of the panel (Homo sapiens, UniProt Q9Y6M4); conditions: for % Activity: CK1γ3(h)
[26] = target: each individual kinase of the panel (Homo sapiens, UniProt P49137)
[27] = target: each individual kinase of the panel (Homo sapiens, UniProt Q00534)
[28] = target: each individual kinase of the panel (Homo sapiens, UniProt P28482)
[29] = target: each individual kinase of the panel (Homo sapiens, UniProt P41240)
Chain of each individual kinase of the panel (Homo sapiens, UniProt P41240) (P41240 2-450 limits assumed): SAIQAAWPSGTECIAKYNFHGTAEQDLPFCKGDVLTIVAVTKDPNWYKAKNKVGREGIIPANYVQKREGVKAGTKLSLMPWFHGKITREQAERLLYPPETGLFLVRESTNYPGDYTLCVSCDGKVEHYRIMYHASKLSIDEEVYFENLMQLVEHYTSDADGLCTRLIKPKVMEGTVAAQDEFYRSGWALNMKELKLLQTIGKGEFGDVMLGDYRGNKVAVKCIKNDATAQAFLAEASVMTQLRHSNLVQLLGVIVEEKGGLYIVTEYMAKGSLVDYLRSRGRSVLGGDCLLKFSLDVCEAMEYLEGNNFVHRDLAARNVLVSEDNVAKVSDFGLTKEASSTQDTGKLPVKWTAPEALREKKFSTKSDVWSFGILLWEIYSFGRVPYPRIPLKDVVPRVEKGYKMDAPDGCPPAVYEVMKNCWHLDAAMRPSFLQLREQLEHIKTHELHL

Chain of each individual kinase of the panel (Homo sapiens, UniProt P28482) (P28482 2-360 limits assumed): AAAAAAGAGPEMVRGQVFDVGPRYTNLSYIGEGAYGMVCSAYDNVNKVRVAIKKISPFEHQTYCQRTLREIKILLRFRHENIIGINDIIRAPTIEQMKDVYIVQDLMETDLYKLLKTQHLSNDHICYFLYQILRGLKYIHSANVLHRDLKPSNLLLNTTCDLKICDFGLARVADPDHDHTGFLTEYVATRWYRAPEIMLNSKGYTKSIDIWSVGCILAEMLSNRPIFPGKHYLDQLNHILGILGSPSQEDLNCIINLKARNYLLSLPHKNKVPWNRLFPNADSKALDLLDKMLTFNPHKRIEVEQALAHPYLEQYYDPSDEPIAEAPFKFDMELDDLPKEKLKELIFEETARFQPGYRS
Chain of each individual kinase of the panel (Homo sapiens, UniProt Q06418) (Q06418 41-890 limits assumed): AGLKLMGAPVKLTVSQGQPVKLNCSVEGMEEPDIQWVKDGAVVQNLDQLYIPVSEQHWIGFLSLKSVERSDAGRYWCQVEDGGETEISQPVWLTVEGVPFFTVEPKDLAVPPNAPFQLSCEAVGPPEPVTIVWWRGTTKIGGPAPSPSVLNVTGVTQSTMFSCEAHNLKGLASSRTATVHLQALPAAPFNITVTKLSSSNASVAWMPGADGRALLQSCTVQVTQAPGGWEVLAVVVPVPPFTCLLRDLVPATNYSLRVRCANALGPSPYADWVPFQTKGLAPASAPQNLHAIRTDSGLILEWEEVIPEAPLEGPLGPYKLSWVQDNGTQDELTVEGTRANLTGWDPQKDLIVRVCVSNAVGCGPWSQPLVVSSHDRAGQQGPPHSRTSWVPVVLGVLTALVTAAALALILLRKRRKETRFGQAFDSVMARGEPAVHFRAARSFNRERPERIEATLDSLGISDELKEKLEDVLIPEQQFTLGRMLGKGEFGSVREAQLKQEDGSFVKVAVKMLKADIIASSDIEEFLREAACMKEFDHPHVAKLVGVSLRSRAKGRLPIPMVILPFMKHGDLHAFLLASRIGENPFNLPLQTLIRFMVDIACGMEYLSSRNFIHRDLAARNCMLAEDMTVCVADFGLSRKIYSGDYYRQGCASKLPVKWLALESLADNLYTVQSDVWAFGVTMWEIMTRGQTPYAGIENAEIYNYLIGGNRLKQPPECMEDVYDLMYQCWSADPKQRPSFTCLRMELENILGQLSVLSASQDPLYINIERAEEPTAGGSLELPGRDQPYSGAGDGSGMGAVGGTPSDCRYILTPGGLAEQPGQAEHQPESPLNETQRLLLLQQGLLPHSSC
Chain of each individual kinase of the panel (Homo sapiens, UniProt P07947) (P07947 2-543 limits assumed): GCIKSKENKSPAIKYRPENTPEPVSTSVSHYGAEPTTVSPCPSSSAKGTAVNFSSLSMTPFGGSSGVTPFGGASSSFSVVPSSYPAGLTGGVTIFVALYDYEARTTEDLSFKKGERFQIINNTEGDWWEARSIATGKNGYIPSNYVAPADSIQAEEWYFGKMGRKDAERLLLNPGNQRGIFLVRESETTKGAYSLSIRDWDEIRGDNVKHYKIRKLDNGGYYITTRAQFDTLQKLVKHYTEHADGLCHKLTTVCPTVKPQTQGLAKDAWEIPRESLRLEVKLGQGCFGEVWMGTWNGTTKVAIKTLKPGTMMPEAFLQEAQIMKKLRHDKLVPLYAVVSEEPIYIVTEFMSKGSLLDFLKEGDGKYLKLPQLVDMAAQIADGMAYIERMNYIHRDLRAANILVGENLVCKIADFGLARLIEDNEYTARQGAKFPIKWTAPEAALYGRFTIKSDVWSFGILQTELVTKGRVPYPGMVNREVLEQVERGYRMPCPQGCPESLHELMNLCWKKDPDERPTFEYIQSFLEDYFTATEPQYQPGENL
Chain of each individual kinase of the panel (Homo sapiens, UniProt O14733) (O14733 2-419 limits assumed): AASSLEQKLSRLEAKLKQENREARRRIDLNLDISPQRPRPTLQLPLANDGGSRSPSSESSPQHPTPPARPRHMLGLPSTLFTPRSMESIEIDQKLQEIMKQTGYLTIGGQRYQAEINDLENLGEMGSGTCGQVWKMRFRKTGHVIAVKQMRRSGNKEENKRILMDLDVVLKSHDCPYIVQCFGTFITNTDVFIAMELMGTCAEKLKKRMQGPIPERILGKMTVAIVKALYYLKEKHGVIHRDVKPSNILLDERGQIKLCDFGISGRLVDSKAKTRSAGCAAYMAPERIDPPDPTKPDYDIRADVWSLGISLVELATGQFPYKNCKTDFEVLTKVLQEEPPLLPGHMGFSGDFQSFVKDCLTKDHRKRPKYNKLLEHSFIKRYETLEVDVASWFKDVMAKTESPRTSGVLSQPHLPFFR
Chain of each individual kinase of the panel (Homo sapiens, UniProt P16234) (P16234 24-1089 limits assumed): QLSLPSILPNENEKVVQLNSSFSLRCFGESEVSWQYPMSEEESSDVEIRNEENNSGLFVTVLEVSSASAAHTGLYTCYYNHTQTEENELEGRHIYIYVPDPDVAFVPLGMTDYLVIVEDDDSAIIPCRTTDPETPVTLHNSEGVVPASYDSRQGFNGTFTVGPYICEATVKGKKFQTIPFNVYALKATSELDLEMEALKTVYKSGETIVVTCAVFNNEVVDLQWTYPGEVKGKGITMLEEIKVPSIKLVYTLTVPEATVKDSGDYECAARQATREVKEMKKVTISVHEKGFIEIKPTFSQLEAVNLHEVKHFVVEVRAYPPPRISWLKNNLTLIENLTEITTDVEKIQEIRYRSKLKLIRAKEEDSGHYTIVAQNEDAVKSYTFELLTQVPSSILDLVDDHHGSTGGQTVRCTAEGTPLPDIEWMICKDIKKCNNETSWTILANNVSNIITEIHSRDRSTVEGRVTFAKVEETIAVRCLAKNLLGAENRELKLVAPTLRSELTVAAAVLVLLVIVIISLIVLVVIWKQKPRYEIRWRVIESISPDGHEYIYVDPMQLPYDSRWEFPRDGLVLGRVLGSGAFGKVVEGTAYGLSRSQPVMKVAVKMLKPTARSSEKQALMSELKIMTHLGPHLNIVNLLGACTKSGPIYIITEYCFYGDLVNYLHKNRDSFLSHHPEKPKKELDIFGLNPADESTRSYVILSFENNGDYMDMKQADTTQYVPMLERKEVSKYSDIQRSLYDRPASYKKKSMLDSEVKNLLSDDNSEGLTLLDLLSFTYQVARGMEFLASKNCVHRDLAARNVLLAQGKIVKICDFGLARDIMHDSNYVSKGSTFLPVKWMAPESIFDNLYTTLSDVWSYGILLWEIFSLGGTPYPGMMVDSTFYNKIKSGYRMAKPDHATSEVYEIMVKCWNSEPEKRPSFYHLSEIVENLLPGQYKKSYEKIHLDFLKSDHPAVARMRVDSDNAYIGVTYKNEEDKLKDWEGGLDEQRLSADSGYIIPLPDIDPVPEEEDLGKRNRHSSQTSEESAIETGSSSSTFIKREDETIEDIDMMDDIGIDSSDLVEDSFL
Chain of each individual kinase of the panel (Homo sapiens, UniProt P12931) (P12931 2-536 limits assumed): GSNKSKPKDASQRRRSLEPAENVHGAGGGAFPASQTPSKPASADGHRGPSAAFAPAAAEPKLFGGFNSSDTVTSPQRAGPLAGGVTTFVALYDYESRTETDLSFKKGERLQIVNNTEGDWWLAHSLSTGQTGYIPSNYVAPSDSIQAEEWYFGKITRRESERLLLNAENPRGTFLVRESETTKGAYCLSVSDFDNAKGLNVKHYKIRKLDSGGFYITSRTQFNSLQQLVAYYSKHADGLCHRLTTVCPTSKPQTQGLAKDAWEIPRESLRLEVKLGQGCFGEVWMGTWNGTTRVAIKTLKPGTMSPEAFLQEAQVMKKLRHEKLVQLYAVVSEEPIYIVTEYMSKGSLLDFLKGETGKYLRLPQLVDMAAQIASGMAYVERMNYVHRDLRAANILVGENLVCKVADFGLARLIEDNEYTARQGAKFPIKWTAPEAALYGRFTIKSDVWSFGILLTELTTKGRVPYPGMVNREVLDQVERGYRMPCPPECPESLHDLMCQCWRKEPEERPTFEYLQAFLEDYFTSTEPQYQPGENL

Clc1ccccc1Nc1nc2c(-c3nnc[nH]3)cccc2c2cnccc12 [A]
% Activity [1]: 81% | % Activity [2]: 39% | % Activity [3]: 87% | % Activity [4]: 37% | % Activity [5]: 84% | % Activity [6]: 26% | % Activity [7]: 1% | % Activity [8]: 64% | % Activity [9]: 97% | % Activity [10]: 99% | % Activity [11]: 62% | % Activity [12]: 24% | % Activity [13]: 97% | % Activity [14]: 23% | % Activity [15]: 95% | % Activity [16]: 58% | % Activity [17]: 24% | % Activity [18]: 109% | % Activity [19]: 90% | % Activity [20]: 13% | % Activity [21]: 86% | % Activity [22]: −1% | % Activity [23]: 30% | % Activity [24]: 2% | % Activity [25]: 21%

NC(=O)c1cccc2c1nc(Nc1cccc(Cl)c1)c1ccncc12 [B]
% Activity [1]: 75% | % Activity [2]: 55% | % Activity [3]: 92% | % Activity [4]: 18% | % Activity [5]: 94% | % Activity [6]: 44% | % Activity [7]: 9% | % Activity [8]: 74% | % Activity [9]: 105% | % Activity [10]: 97% | % Activity [11]: 66% | % Activity [12]: 2% | % Activity [13]: 106% | % Activity ([26]; MAPKAP-K2(h)): 104% | % Activity [14]: 25% | % Activity [15]: 93% | % Activity [16]: 48% | % Activity [17]: 77% | % Activity ([27]; CDK6/cyclinD3(h)): 63% | % Activity [18]: 87% | % Activity [19]: 62% | % Activity [20]: 14% | % Activity [21]: 86% | % Activity [22]: 2% | % Activity [23]: 71% | % Activity [24]: 46% | % Activity [25]: 38%

C#Cc1cccc(Nc2nc3cc(C(=O)O)ccc3c3cncnc23)c1 [drawing 1135]
MAP2K7 beta percentage of activity [1]: −33% | JAK2 percentage of activity [2]: 1% | ABL1 percentage of activity [3]: 9% | CDK1/cyclinB percentage of activity [4]: 48% | FES percentage of activity [5]: −39% | YES percentage of activity [6]: −9% | PIM1 percentage of activity [7]: 73% | SRC percentage of activity [8]: −2% | Src(1-530) percentage of activity [8]: −1% | PDGFRA percentage of activity [9]: −9% | PRKCA percentage of activity [10]: 1% | FLT1 percentage of activity [11]: 5% | ERK2 percentage of activity [28]: 5% | MAPK2 percentage of activity [28]: −4% | FLT3(D835Y) percentage of activity [12]: 83% | CSK percentage of activity [29]: −46% | ZAP70 percentage of activity [13]: −18% | MAPKAPK2 percentage of activity [26]: −7% | GSK3B percentage of activity [14]: 44% | EPHA5 percentage of activity [15]: −25% | MLK1 percentage of activity [17]: 20% | CDK6/cyclinD3 percentage of activity [27]: −8% | TYRO3 percentage of activity [18]: −9% | CAMK1 percentage of activity [19]: −4% | MELK percentage of activity [20]: 51% | PRKd_nM2 percentage of activity [21]: −7% | CK1 gamma 1 percentage of activity [23]: −5% | PIM2 percentage of activity [24]: 25% | CK1 gamma 3 percentage of activity [25]: 0%

C#Cc1cccc(Nc2nc3cc(C(=O)O)ccc3c3cnccc23)c1 [drawing 1137]
MAP2K7 beta percentage of activity [1]: 7% | JAK2 percentage of activity [2]: 38% | ABL1 percentage of activity [3]: 20% | CDK1/cyclinB percentage of activity [4]: 84% | FES percentage of activity [5]: 1% | YES percentage of activity [6]: 34% | PIM1 percentage of activity [7]: 75% | SRC percentage of activity [8]: 22% | Src(1-530) percentage of activity [8]: 11% | PDGFRA percentage of activity [9]: −2% | PRKCA percentage of activity [10]: 9% | FLT1 percentage of activity [11]: 75% | ERK2 percentage of activity [28]: 21% | FLT3(D835Y) percentage of activity [12]: 97% | CSK percentage of activity [29]: −9% | ZAP70 percentage of activity [13]: 2% | MAPKAPK2 percentage of activity [26]: −12% | GSK3B percentage of activity [14]: 28% | EPHA5 percentage of activity [15]: 12% | MLK1 percentage of activity [17]: 21% | CDK6/cyclinD3 percentage of activity [27]: 12% | TYRO3 percentage of activity [18]: 22% | CAMK1 percentage of activity [19]: 1% | MELK percentage of activity [20]: 77% | PRKd_nM2 percentage of activity [21]: 0% | HIPK2 percentage of activity [22]: 96% | CK1 gamma 1 percentage of activity [23]: 10% | PIM2 percentage of activity [24]: 6% | CK1 gamma 3 percentage of activity [25]: 32%

NC(=O)c1ccc2c(c1)nc(Nc1cccc(Cl)c1)c1ccncc12 [drawing 1138]
MAP2K7 beta percentage of activity [1]: 12% | JAK2 percentage of activity [2]: −4% | ABL1 percentage of activity [3]: 14% | CDK1/cyclinB percentage of activity [4]: 63% | FES percentage of activity [5]: −2% | YES percentage of activity [6]: 30% | PIM1 percentage of activity [7]: 18% | PDGFRA percentage of activity [9]: 5% | PRKCA percentage of activity [10]: 1% | FLT1 percentage of activity [11]: 19% | ERK2 percentage of activity [28]: 15% | FLT3(D835Y) percentage of activity [12]: 99% | CSK percentage of activity [29]: 14% | ZAP70 percentage of activity [13]: −2% | MAPKAPK2 percentage of activity [26]: −2% | GSK3B percentage of activity [14]: 26% | EPHA5 percentage of activity [15]: 8% | CK2 alpha 1 percentage of activity [16]: 84% | MLK1 percentage of activity [17]: 49% | CDK6/cyclinD3 percentage of activity [27]: 6% | TYRO3 percentage of activity [18]: 2% | CAMK1 percentage of activity [19]: 4% | MELK percentage of activity [20]: 73% | PRKd_nM2 percentage of activity [21]: 25% | HIPK2 percentage of activity [22]: 89% | CK1 gamma 1 percentage of activity [23]: 7% | CK1 gamma 3 percentage of activity [25]: −5%

From patent US8168651B2, “Protein kinase modulators” (Cylene Pharmaceuticals, Inc., priority 2008, dated 2012)
